{"source": "PubChem BioAssay (NCI)", "assay_in_all_cases": "NCI tumour cell line growth inhibition, 384-well format", "key": {"MCF7 breast": {"test_system": "MCF7 breast"}, "SK-OV-3 ovarian": {"test_system": "SK-OV-3 ovarian"}, "HCC-2998 colon": {"test_system": "HCC-2998 colon"}, "OVCAR-4 ovarian": {"test_system": "OVCAR-4 ovarian"}, "HOP-92 NSCLC": {"test_system": "HOP-92 NSCLC"}, "UACC-257 melanoma": {"test_system": "UACC-257 melanoma"}, "RPMI-8226 leukemia": {"test_system": "RPMI-8226 leukemia"}, "KM12 colon": {"test_system": "KM12 colon"}, "MDA-MB-435 melanoma": {"test_system": "MDA-MB-435 melanoma"}, "LOX IMVI melanoma": {"test_system": "LOX IMVI melanoma"}, "SF-295 CNS": {"test_system": "SF-295 CNS"}, "MALME-3M melanoma": {"test_system": "MALME-3M melanoma"}, "SF-268 CNS": {"test_system": "SF-268 CNS"}, "HOP-62 NSCLC": {"test_system": "HOP-62 NSCLC"}, "T-47D breast": {"test_system": "T-47D breast"}, "SK-MEL-28 melanoma": {"test_system": "SK-MEL-28 melanoma"}, "NCI-H322M lung": {"test_system": "NCI-H322M lung"}, "SF-539 CNS": {"test_system": "SF-539 CNS"}, "HS 578T breast": {"test_system": "HS 578T breast"}, "SNB-19 CNS": {"test_system": "SNB-19 CNS"}, "UACC-62 melanoma": {"test_system": "UACC-62 melanoma"}, "IGROV1 ovarian": {"test_system": "IGROV1 ovarian"}, "OVCAR-5 ovarian": {"test_system": "OVCAR-5 ovarian"}, "SNB-75 CNS": {"test_system": "SNB-75 CNS"}, "U251 glioblastoma": {"test_system": "U251 glioblastoma"}, "HL-60(TB) leukemia": {"test_system": "HL-60(TB) leukemia"}, "ACHN renal": {"test_system": "ACHN renal"}}, "note": "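GI50 is the concentration that inhibits growth by half. TGI is the concentration that stops growth completely.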", "data": [{"smiles": "O=C(CCCCCCNC(=O)c1cnc(N(c2ccccc2)c2ccccc2)nc1)NO", "values": [{"measurement": "GI50", "setting": "MCF7 breast", "result": 2.18, "unit": "µM"}, {"measurement": "TGI", "setting": "MCF7 breast", "result": 11.8, "unit": "µM"}, {"measurement": "GI50", "setting": "SK-OV-3 ovarian", "result": 2.92, "unit": "µM"}, {"measurement": "TGI", "setting": "SK-OV-3 ovarian", "result": 14.1, "unit": "µM"}, {"measurement": "GI50", "setting": "HCC-2998 colon", "result": 2.7, "unit": "µM"}, {"measurement": "TGI", "setting": "HCC-2998 colon", "result": 8.93, "unit": "µM"}, {"measurement": "GI50", "setting": "OVCAR-4 ovarian", "result": 3.22, "unit": "µM"}, {"measurement": "TGI", "setting": "OVCAR-4 ovarian", "result": 13, "unit": "µM"}, {"measurement": "GI50", "setting": "HOP-92 NSCLC", "result": 3.26, "unit": "µM"}, {"measurement": "TGI", "setting": "HOP-92 NSCLC", "result": 13.4, "unit": "µM"}, {"measurement": "GI50", "setting": "UACC-257 melanoma", "result": 1.07, "unit": "µM"}, {"measurement": "TGI", "setting": "UACC-257 melanoma", "result": 5.12, "unit": "µM"}, {"measurement": "GI50", "setting": "RPMI-8226 leukemia", "result": 0.573, "unit": "µM"}, {"measurement": "TGI", "setting": "RPMI-8226 leukemia", "result": 1.81, "unit": "µM"}, {"measurement": "GI50", "setting": "KM12 colon", "result": 3.53, "unit": "µM"}, {"measurement": "TGI", "setting": "KM12 colon", "result": 16.1, "unit": "µM"}, {"measurement": "GI50", "setting": "MDA-MB-435 melanoma", "result": 2.38, "unit": "µM"}, {"measurement": "TGI", "setting": "MDA-MB-435 melanoma", "result": 5.28, "unit": "µM"}, {"measurement": "GI50", "setting": "LOX IMVI melanoma", "result": 1.97, "unit": "µM"}, {"measurement": "TGI", "setting": "LOX IMVI melanoma", "result": 4.3, "unit": "µM"}, {"measurement": "GI50", "setting": "SF-295 CNS", "result": 4.5, "unit": "µM"}, {"measurement": "TGI", "setting": "SF-295 CNS", "result": 15.6, "unit": "µM"}, {"measurement": "GI50", "setting": "MALME-3M melanoma", "result": 1.49, "unit": "µM"}, {"measurement": "TGI", "setting": "MALME-3M melanoma", "result": 5.49, "unit": "µM"}, {"measurement": "GI50", "setting": "SF-268 CNS", "result": 2.86, "unit": "µM"}, {"measurement": "TGI", "setting": "SF-268 CNS", "result": 10.1, "unit": "µM"}, {"measurement": "GI50", "setting": "HOP-62 NSCLC", "result": 2.31, "unit": "µM"}, {"measurement": "TGI", "setting": "HOP-62 NSCLC", "result": 10.3, "unit": "µM"}, {"measurement": "GI50", "setting": "T-47D breast", "result": 1.73, "unit": "µM"}, {"measurement": "TGI", "setting": "T-47D breast", "result": 4.32, "unit": "µM"}, {"measurement": "GI50", "setting": "SK-MEL-28 melanoma", "result": 3.23, "unit": "µM"}, {"measurement": "TGI", "setting": "SK-MEL-28 melanoma", "result": 12.8, "unit": "µM"}, {"measurement": "GI50", "setting": "NCI-H322M lung", "result": 3.52, "unit": "µM"}, {"measurement": "TGI", "setting": "NCI-H322M lung", "result": 16.9, "unit": "µM"}, {"measurement": "GI50", "setting": "SF-539 CNS", "result": 5.25, "unit": "µM"}, {"measurement": "TGI", "setting": "SF-539 CNS", "result": 22.4, "unit": "µM"}, {"measurement": "GI50", "setting": "HS 578T breast", "result": 1.97, "unit": "µM"}, {"measurement": "TGI", "setting": "HS 578T breast", "result": 6.37, "unit": "µM"}, {"measurement": "GI50", "setting": "SNB-19 CNS", "result": 3.59, "unit": "µM"}, {"measurement": "TGI", "setting": "SNB-19 CNS", "result": 12.9, "unit": "µM"}, {"measurement": "GI50", "setting": "UACC-62 melanoma", "result": 1.55, "unit": "µM"}, {"measurement": "TGI", "setting": "UACC-62 melanoma", "result": 4.13, "unit": "µM"}, {"measurement": "GI50", "setting": "IGROV1 ovarian", "result": 2.13, "unit": "µM"}, {"measurement": "TGI", "setting": "IGROV1 ovarian", "result": 6.57, "unit": "µM"}, {"measurement": "GI50", "setting": "OVCAR-5 ovarian", "result": 1.84, "unit": "µM"}, {"measurement": "TGI", "setting": "OVCAR-5 ovarian", "result": 4.8, "unit": "µM"}, {"measurement": "GI50", "setting": "SNB-75 CNS", "result": 4.65, "unit": "µM"}, {"measurement": "TGI", "setting": "SNB-75 CNS", "result": 30.3, "unit": "µM"}, {"measurement": "GI50", "setting": "U251 glioblastoma", "result": 1.85, "unit": "µM"}, {"measurement": "TGI", "setting": "U251 glioblastoma", "result": 4.3, "unit": "µM"}, {"measurement": "GI50", "setting": "HL-60(TB) leukemia", "result": 2.36, "unit": "µM"}, {"measurement": "TGI", "setting": "HL-60(TB) leukemia", "result": 3.82, "unit": "µM"}, {"measurement": "GI50", "setting": "ACHN renal", "result": 7.93, "unit": "µM"}, {"measurement": "TGI", "setting": "ACHN renal", "result": 22.1, "unit": "µM"}]}]}
